Where “and” joins values, the source holds several entries; their conditions need not be identical. Equal values may be shown once. ± gives the uncertainty stated by the source.
Test: xn = mol fraction of the nth substance listed

CCO + O
Settings	viscosity
293.15 K, 100 kPa, x1 = 0.3	2.81 ± 0.0084 mPa·s
293.15 K, 100 kPa, x1 = 0.4	2.616 ± 0.0078 mPa·s
293.15 K, 101 kPa, x2 = 0.25	2.385 ± 0.029 mPa·s
293.15 K, 101 kPa, x2 = 0.75	2.114 ± 0.026 mPa·s
293.15 K, 101.33 kPa, x1 = 0.04164	1.564 ± 0.016 mPa·s
293.15 K, 101.33 kPa, x1 = 0.2068	2.942 ± 0.029 mPa·s
293.15 K, 101.33 kPa, x1 = 0.235	2.947 ± 0.029 mPa·s
293.15 K, 101.33 kPa, x1 = 0.2499	2.922 ± 0.029 mPa·s
293.15 K, 101.33 kPa, x1 = 0.3697	2.694 ± 0.027 mPa·s
293.15 K, 101.33 kPa, x1 = 0.4771	2.381 ± 0.024 mPa·s
293.15 K, 101.33 kPa, x1 = 0.61	2.036 ± 0.02 mPa·s
293.15 K, 101.33 kPa, x1 = 0.7787	1.643 ± 0.016 mPa·s
293.15 K, 101.33 kPa, x2 = 0.0102	1.261 ± 0.013 mPa·s
298 K, 101 kPa, x1 = 0.09	1.81 ± 0.02 mPa·s
298 K, 101 kPa, x1 = 0.1	2.409 ± 0.027 mPa·s
298 K, 101 kPa, x1 = 0.4	2.234 ± 0.025 mPa·s
298 K, 101 kPa, x1 = 0.5	2.013 ± 0.023 mPa·s
298.15 K, 100 kPa, x1 = 0.2	2.335 ± 0.095 mPa·s
298.15 K, 100 kPa, x1 = 0.4	2.148 ± 0.088 mPa·s
298.15 K, 100 kPa, x1 = 0.78	1.423 ± 0.058 mPa·s
298.15 K, 101 kPa, x1 = 0.0112	0.991 ± 0.013 mPa·s
298.15 K, 101 kPa, x1 = 0.0129	1.007 ± 0.013 mPa·s
298.15 K, 101 kPa, x1 = 0.0197	1.072 ± 0.013 mPa·s
298.15 K, 101 kPa, x1 = 0.025	1.127 ± 0.014 mPa·s
298.15 K, 101 kPa, x1 = 0.0289	1.166 ± 0.014 mPa·s
298.15 K, 101 kPa, x1 = 0.0348	1.225 ± 0.014 mPa·s
298.15 K, 101 kPa, x1 = 0.0439	1.322 ± 0.015 mPa·s
298.15 K, 101 kPa, x1 = 0.0515	1.405 ± 0.018 mPa·s
298.15 K, 101 kPa, x1 = 0.0677	1.576 ± 0.017 mPa·s
298.15 K, 101 kPa, x1 = 0.1003	1.889 ± 0.027 mPa·s
298.15 K, 101 kPa, x1 = 0.1025	1.91 ± 0.019 mPa·s
298.15 K, 101 kPa, x1 = 0.1139	2 ± 0.019 mPa·s
298.15 K, 101 kPa, x1 = 0.1302	2.109 ± 0.019 mPa·s
298.15 K, 101 kPa, x1 = 0.14	2.1 ± 0.02 mPa·s
298.15 K, 101 kPa, x1 = 0.1597	2.247 ± 0.033 mPa·s
298.15 K, 101 kPa, x1 = 0.1837	2.322 ± 0.021 mPa·s
298.15 K, 101 kPa, x1 = 0.28	2.25 ± 0.02 mPa·s
298.15 K, 101 kPa, x1 = 0.3515	2.248 ± 0.03 mPa·s
298.15 K, 101 kPa, x1 = 0.37	2.14 ± 0.03 mPa·s
298.15 K, 101 kPa, x1 = 0.4801	1.995 ± 0.025 mPa·s
298.15 K, 101 kPa, x1 = 0.613	1.725 ± 0.023 mPa·s
298.15 K, 101 kPa, x1 = 0.6923	1.58 ± 0.02 mPa·s
298.15 K, 101 kPa, x1 = 0.8006	1.401 ± 0.019 mPa·s
298.15 K, 101 kPa, x1 = 0.8018	1.399 ± 0.017 mPa·s
298.15 K, 101 kPa, x1 = 0.905	1.239 ± 0.018 mPa·s
298.15 K, 101 kPa, x1 = 0.9518	1.167 ± 0.017 mPa·s
298.15 K, 101 kPa, x2 = 0.25	2.046 ± 0.025 mPa·s
298.15 K, 101 kPa, x2 = 0.5	2.322 ± 0.029 mPa·s
298.15 K, 101 kPa, x2 = 0.75	1.778 ± 0.022 mPa·s
298.15 K, 101 kPa, x2 = 0.9584	1.108 ± 0.0087 mPa·s
298.15 K, 101.33 kPa, x1 = 0.0144	0.96 ± 0.008 mPa·s
298.15 K, 101.33 kPa, x1 = 0.0205	1.013 ± 0.008 mPa·s
298.15 K, 101.33 kPa, x1 = 0.1135	1.851 ± 0.014 mPa·s
298.15 K, 101.33 kPa, x1 = 0.1414	2.129 ± 0.016 mPa·s
298.15 K, 101.33 kPa, x1 = 0.1893	2.29 ± 0.018 mPa·s
298.15 K, 101.33 kPa, x1 = 0.2151	2.327 ± 0.018 mPa·s
298.15 K, 101.33 kPa, x1 = 0.3285	2.273 ± 0.017 mPa·s
298.15 K, 101.33 kPa, x1 = 0.3308	2.273 ± 0.017 mPa·s
298.15 K, 101.33 kPa, x1 = 0.3461	2.247 ± 0.017 mPa·s
298.15 K, 101.33 kPa, x1 = 0.3745	2.226 ± 0.017 mPa·s
298.15 K, 101.33 kPa, x1 = 0.3801	2.212 ± 0.017 mPa·s
298.15 K, 101.33 kPa, x1 = 0.4246	2.104 ± 0.016 mPa·s
298.15 K, 101.33 kPa, x1 = 0.4299	2.112 ± 0.016 mPa·s
298.15 K, 101.33 kPa, x1 = 0.4836	1.995 ± 0.015 mPa·s
298.2 K, 100 kPa, x2 = 0.387	1.854 ± 0.021 mPa·s
298.2 K, 100 kPa, x2 = 0.399	1.676 ± 0.047 mPa·s
298.2 K, 100 kPa, x2 = 0.655	2.18 ± 0.052 mPa·s
298.2 K, 100 kPa, x2 = 0.674	2.18 ± 0.032 mPa·s
300.65 K, 101 kPa, x1 = 0.86	1.1 ± 0.02 mPa·s
303.15 K, 101 kPa, x2 = 0.25	1.767 ± 0.022 mPa·s
303.15 K, 101 kPa, x2 = 0.5	1.961 ± 0.024 mPa·s
303.15 K, 101.33 kPa, x1 = 0.04164	1.179 ± 0.012 mPa·s
303.15 K, 101.33 kPa, x1 = 0.08905	1.574 ± 0.016 mPa·s
303.15 K, 101.33 kPa, x1 = 0.1435	1.9 ± 0.019 mPa·s
303.15 K, 101.33 kPa, x1 = 0.2499	2.061 ± 0.021 mPa·s
303.15 K, 101.33 kPa, x1 = 0.2652	2.056 ± 0.021 mPa·s
303.15 K, 101.33 kPa, x1 = 0.2811	2.068 ± 0.021 mPa·s
303.15 K, 101.33 kPa, x1 = 0.4771	1.79 ± 0.018 mPa·s
303.15 K, 101.33 kPa, x1 = 0.61	1.567 ± 0.016 mPa·s
303.15 K, 101.33 kPa, x1 = 0.7787	1.311 ± 0.013 mPa·s
303.15 K, 101.33 kPa, x2 = 0.0102	1.035 ± 0.01 mPa·s
308 K, 101 kPa, x1 = 0.09	1.343 ± 0.035 mPa·s
308.15 K, 101 kPa, x2 = 0.25	1.54 ± 0.019 mPa·s
308.15 K, 101 kPa, x2 = 0.5	1.676 ± 0.021 mPa·s
308.15 K, 101 kPa, x2 = 0.9584	0.939 ± 0.0076 mPa·s
313.15 K, 101 kPa, x2 = 0.25	1.349 ± 0.017 mPa·s
313.15 K, 101 kPa, x2 = 0.5	1.448 ± 0.018 mPa·s
313.15 K, 101.33 kPa, x1 = 0.04164	0.909 ± 0.0091 mPa·s
313.15 K, 101.33 kPa, x1 = 0.1435	1.383 ± 0.014 mPa·s
313.15 K, 101.33 kPa, x1 = 0.2068	1.494 ± 0.015 mPa·s
313.15 K, 101.33 kPa, x1 = 0.2499	1.509 ± 0.015 mPa·s
313.15 K, 101.33 kPa, x1 = 0.2652	1.514 ± 0.015 mPa·s
313.15 K, 101.33 kPa, x1 = 0.2811	1.529 ± 0.015 mPa·s
313.15 K, 101.33 kPa, x1 = 0.61	1.223 ± 0.012 mPa·s
313.15 K, 101.33 kPa, x1 = 0.7787	1.05 ± 0.01 mPa·s
317.15 K, 101 kPa, x1 = 0.86	0.779 ± 0.017 mPa·s
318.15 K, 101 kPa, x2 = 0.25	1.185 ± 0.015 mPa·s
318.15 K, 101 kPa, x2 = 0.5	1.255 ± 0.015 mPa·s
318.15 K, 101 kPa, x2 = 0.9413	0.8181 ± 0.0067 mPa·s
323.15 K, 100 kPa, x1 = 0.2	1.113 ± 0.0033 mPa·s and 1.08 ± 0.045 mPa·s
323.15 K, 100 kPa, x1 = 0.3	1.108 ± 0.046 mPa·s
323.15 K, 100 kPa, x1 = 0.4	1.113 ± 0.0033 mPa·s and 1.072 ± 0.044 mPa·s
323.15 K, 100 kPa, x1 = 0.6	0.9548 ± 0.0029 mPa·s and 0.9408 ± 0.039 mPa·s
323.15 K, 100 kPa, x1 = 0.8	0.8101 ± 0.033 mPa·s
323.15 K, 101 kPa, x2 = 0.25	1.055 ± 0.013 mPa·s
323.15 K, 101 kPa, x2 = 0.5	1.102 ± 0.014 mPa·s
323.15 K, 101 kPa, x2 = 0.75	0.89 ± 0.011 mPa·s
323.15 K, 101.33 kPa, x1 = 0.04164	0.747 ± 0.0075 mPa·s
323.15 K, 101.33 kPa, x1 = 0.08905	0.924 ± 0.0092 mPa·s
323.15 K, 101.33 kPa, x1 = 0.1435	1.061 ± 0.011 mPa·s
323.15 K, 101.33 kPa, x1 = 0.2068	1.152 ± 0.012 mPa·s
323.15 K, 101.33 kPa, x1 = 0.235	1.157 ± 0.012 mPa·s
323.15 K, 101.33 kPa, x1 = 0.2499	1.162 ± 0.012 mPa·s
323.15 K, 101.33 kPa, x1 = 0.2652	1.177 ± 0.012 mPa·s
323.15 K, 101.33 kPa, x1 = 0.2811	1.18 ± 0.012 mPa·s
323.15 K, 101.33 kPa, x1 = 0.3697	1.162 ± 0.012 mPa·s
323.15 K, 101.33 kPa, x1 = 0.4771	1.089 ± 0.011 mPa·s
323.15 K, 101.33 kPa, x1 = 0.61	0.981 ± 0.0098 mPa·s
323.15 K, 101.33 kPa, x1 = 0.7787	0.866 ± 0.0087 mPa·s
323.15 K, 101.33 kPa, x2 = 0.0102	0.729 ± 0.0073 mPa·s

Reference: the CheMixHub viscosity set
